PMC10492782, “Exploiting the aggregation propensity of beta-lactamases to design inhibitors that induce enzyme misfolding” (Nature Communications, 2023)
Converted amounts (≈) assume the structure as drawn. Like-named read-outs stand apart in the source and are kept apart here. Residues, ends and D or L forms follow the SMILES beside them.

What was measured:
E. coli strain UZ_TEM104 [1] = settings: broth microdilution, MHB, overnight 37 °C, peptide alone
Source text: Pept-Ins consist of a tandem repeat of the APR, each instance flanked by charged amino acids for solubility and separated by a short peptide linker[20],[21],[24] (Fig. 3A). Previous work has shown that good bacterial uptake can be achieved using one positively charged arginine residue on the N-terminal side of each APR in the tandem and two arginine residues on the C-terminal side[20],[21]. […] As before, we employed a single Pro residue as a linker between the APRs and focused on an APR length of seven, extending shorter APRs to this length by incorporating flanking amino acids unless they were obvious aggregation breakers (Arg, Lys, Asp, Glu or Pro, see Table 1).
Determination of MIC values was performed using the broth microdilution method according to the EUCAST guideline, which was performed in 96-well polystyrene flat-bottom microtiter plates (BD Biosciences). Briefly, a single colony was inoculated into 5 mL Difco™ Mueller–Hinton Broth (BD Biosciences Ref 275730) and grown to the end-exponential growth phase in a shaking incubator at 37 °C. Cultures were subsequently diluted to a MacFarland (0.5 optical density) to reach 10^6 CFU/mL in fresh MHB medium. 50 µl of different concentrations of peptides ranging from 128 to 2 µg/mL were serially diluted to the sterile 96-well plate in MHB. 50 µL of the diluted bacteria in MHB were next pipetted into 96-well plates to reach the final volume of 100 µL. The bacteria grown with the maximum concentration of carrier and medium were considered positive and negative controls, respectively. The plates were statically incubated overnight at 37 °C to allow bacterial growth. OD was measured at 590 nm using a multipurpose ultraviolet–visible plate reader, and the absorbance of the bacterial growth was measured using an absorbance reader.

E. coli strain UZ_TEM104 [2] = assay: microbe, parasite or virus in culture; type: cell-based, Escherichia coli
TEM-1 = TEM-1 (Escherichia coli, UniProt P62593); type: biochemical, E. coli; design: His-tag (N); TEV cleavage site (N); made in house; host or cells: E. coli BL21 (DE3); settings: static light scattering during temperature ramp, inhibitor titration
Chain of TEM-1 (P62593 24-286 limits assumed): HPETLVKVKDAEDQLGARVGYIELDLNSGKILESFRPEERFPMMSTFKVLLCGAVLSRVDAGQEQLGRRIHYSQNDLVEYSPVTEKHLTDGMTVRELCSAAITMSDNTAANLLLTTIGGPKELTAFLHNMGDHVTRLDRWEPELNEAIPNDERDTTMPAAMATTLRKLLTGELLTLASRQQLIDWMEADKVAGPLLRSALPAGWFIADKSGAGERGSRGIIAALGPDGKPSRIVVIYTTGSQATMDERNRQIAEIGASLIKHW
Source text: Then, we performed a thermal denaturation whilst simultaneously monitoring the intrinsic fluorescence as a measure of the folding status of the molecule (Fig. 1D and Supplementary Fig. 2D) and the static light scattering as a measure of aggregation (Fig. 1E and Supplementary Fig. 2E).
D Heat denaturation of TEM-1 monitored by intrinsic fluorescence plotted as the BaryCentric Mean (BCM) of the fluorescence emission spectrum in the presence (red) and absence (blue) of tazobactam. […] E Temperature-dependent evolution of the Right-Angle Light Scattering (RALS) intensity measured simultaneously with the data in D to monitor protein aggregation. […] F Same data as in E, but showing a dose-titration of the beta-lactamase inhibitor tazobactam.

E. coli UZ_TEM104 = assay: FACS with pFTAA (aggregation) and propidium iodide (cell death); type: cell-based, Escherichia coli; settings: 4 h; penicillin G 400 μg/mL and/or TEM3.2 50 μg/mL
Protocol: Fig. 6 Uptake and inclusion body formation upon peptide treatment. Fluorescence-activated cell-sorting (FACS) (A) of E. coli strain UZ_TEM104 mixed 50–50% with the same strain after heat-inactivation. The cells were stained with pFTAA to monitor aggregation and propidium iodide (PI) to monitor cell permeabilization associated with cell death. 10^6 cells were analyzed for the plot. […] B Similar FACS analysis as in A, but with a sample of live bacteria only. […] Note: the horizontal and vertical lines correspond to the gatings used to obtain the quantifications shown in the corners of each image.
Treated bacteria were washed with PBS buffer two times. One microliter of PI (Invitrogen) was added to the bacteria and incubated for 5 min. The bacteria were counted by FACS to reach 40000 events. To correlate the activity of the peptides with cell death, the fluorescence intensity was measured in two channels using the Gallios^TM Flow Cytometer (Beckman Coulter, USA), PI: excitation 536 nm and emission 617 nm, FITC: excitation 490 nm and emission 525 nm. Heated bacteria at 90 °C for 10 min were used as PI-positive control.
The bacterial cultures were washed with PBS, and the number of bacteria was adjusted to 10^8–10^9 cells/mL. […] Then, cells were treated with LCO dyes (pFTAA; Amytacker^TM680 or Amytacker^TM545: final concentration of 0.5 µM; Ebba Biotech, Sweden) for at least 90 min. The absorption, emission, and excitation spectra for each dye were measured based on the standard Ebbabiotec advice (ebbabiotech.com).

E. coli TEM104 = system: E. coli TEM104
Protocol: (§1) To quantify the synergy between these four peptides and penicillin G, we performed a so-called checkerboard assay, which allows us to compare the activity of two test compounds co-incubated (here peptide and a beta-lactam antibiotic), to their individual activities in isolation. […] We evaluated the synergy of the peptides with penicillin G in clinical E. coli isolates carrying the TEM (Fig. 3D) or SHV enzymes (Fig. 3E). […] The list of strains included some that harbored only TEM or SHV, but others contained additional Ambler Class A (CTX-M or OXA) or Class B (VIM and NDM) beta-lactamases.
(§2) For the analysis of synergy between the peptides and other antibiotics, a checkerboard assay was performed. Based on the MICs of the selected peptides, a checkerboard assay was designed to define their FICIs (Fractional Inhibitory Concentration Index) in combinations against different clinical isolates[53],[54]. Briefly, a total volume of 100 μL of Mueller–Hinton broth was distributed into each well of the 96-well plates. The first compound (peptide) of the combination was serially diluted vertically (128, 64, 32, 16, 8, 4, 2, 0 μg/mL) while the other drug (Beta-lactam or Kanamycin) was diluted horizontally in a 96-well plate (from 3200 to 3 μg/ mL). The total volume of each microtiter well was inoculated with 100 μL of MHB containing 1 × 10^6 CFU/mL bacteria. The plates were incubated at 37 °C for 24 h under aerobic conditions without shaking. Calculation of the FICI is used to analyze the results of the checkerboard assay by estimating the degree of synergistic effect. FICI is calculated as the sum of the individual fractional inhibitory concentrations (FICs) for each drug (where MIC A and MIC B denote the MIC of each drug alone, and MIC AA+B and MIC BA+B denote the concentrations of A and B in the drug combination). FICI = (MIC AA+B/MIC A) + (MIC BA+B/MIC B). With FICI ≤ 0.5, the combination of antibiotics is considered as a synergistic effect, 0.5 < FICI ≤ 1 indicates additivity, FICI > 1 indicates indifference.

E. coli NDM-5a = settings: for FICi values: E. coli NDM-5a; for synergy with penicillin (in words): checkerboard, strain containing NDM5a
Source text: (§3) As we wondered about the generality of our peptide design approach, we set out to design a peptide to inactivate a structurally unrelated beta-lactamase. To this end, we turned to the Ambler class B beta-lactamase NDM-1 that confers resistance to many beta-lactam antibiotics, including carbapenems, and strains carrying this enzyme were soon dubbed ‘superbugs’ that are only partially sensitive to colistin and tigecycline. This enzyme was first isolated from a patient in 2008[41]. By 2010 it could be detected in clinical isolates throughout the UK and India[42], and by 2015, in over 70 countries worldwide.
as §2

E. coli NDM-5b = settings: for synergy with penicillin (in words): checkerboard, strain containing NDM5b; for FICi values: E. coli NDM-5b
Source text: as §3, §2

E. coli = type: cell-based, Escherichia coli; settings: E.coli TEM104, Suppl. Figure 5
Protocol: as §2, with “indifference. […]” for “indifference.”
Supplementary Figure 5: Fraction Inhibitory Concentration Index (FICI) values obtained from checkerboard assays between control peptides 1-4 and penicillin G. The peptide sequences were obtained by introducing proline mutations in TEM3.2 as follows: Pro1 […]
([…]), Pro2 ([…]), Pro3
([…]) and Pro4 ([…]). Each of the five dots […]
per condition indicates an independent experiment of the measurement consisting of 96 datapoints. FICI values below 0.5 indicate synergy (shaded in green). Values between 0.5 and 1.0 indicate additivity (shaded in yellow) and values greater than 1 indicate indifference (shaded in red) between the combined substances. […]

E. coli SHV11 = assay: Checkerboard assay (FICI); type: cell-based, Escherichia coli; settings: strain containing SHV-11, FICI below 0.5 = synergy
Protocol: as §1
For the analysis of synergy between the peptides and other antibiotics, a checkerboard assay was performed. Based on the MICs of the selected peptides, a checkerboard assay was designed to define their FICIs (Fractional Inhibitory Concentration Index) in combinations against different clinical isolates[53],[54]. Briefly, a total volume of 100 μL of Mueller–Hinton broth was distributed into each well of the 96-well plates. […] FICI is calculated as the sum of the individual fractional inhibitory concentrations (FICs) for each drug (where MIC A and MIC B denote the MIC of each drug alone, and MIC AA+B and MIC BA+B denote the concentrations of A and B in the drug combination). […]

[3] = E. coli UZ_TEM104, concentration of additive 50 (mg/mL [sic])
[4] = in the presence of additive (peptide or tazobactam) at fixed 50 μg/mL

CC(=O)N[C@@H](CCCNC(=N)N)C(=O)N[C@@H](Cc1ccccc1)C(=O)N[C@@H](Cc1ccccc1)C(=O)N[C@@H](C)C(=O)N[C@@H](C)C(=O)N[C@@H](Cc1ccccc1)C(=O)N[C@@H](CS)C(=O)N[C@@H](CC(C)C)C(=O)N[C@@H](CCCNC(=N)N)C(=O)N[C@@H](CCCNC(=N)N)C(=O)N1CCC[C@H]1C(=O)N[C@@H](CCCNC(=N)N)C(=O)N[C@@H](Cc1ccccc1)C(=O)N[C@@H](Cc1ccccc1)C(=O)N[C@@H](C)C(=O)N[C@@H](C)C(=O)N[C@@H](Cc1ccccc1)C(=O)N[C@@H](CS)C(=O)N[C@@H](CC(C)C)C(=O)N[C@@H](CCCNC(=N)N)C(=O)N[C@@H](CCCNC(=N)N)C(N)=O [TEM1.0] (Ac-RFFAAFCLRRPRFFAAFCLRR-NH2)
MIC peptide (E. coli strain UZ_TEM104 [1]): >0.1 mg/mL
MIC penicillin (E. coli strain UZ_TEM104 [2]; [3]): 1600 mg/mL (≈ 594 mM)
MIC penicillin (E. coli strain UZ_TEM104 [2]; [4]): 1.6 mg/mL

NC(=O)[C@@H]1CC[C@@H]2CN1C(=O)N2OS(=O)(=O)O [avibactam]
effect on aggregation of TEM-1, dose-response (in words) (TEM-1): reduce the aggregation of the enzyme in a dose-responsive manner

O=C(O)[C@H]1/C(=C/CO)O[C@@H]2CC(=O)N21 [clavulanate]
effect on aggregation of TEM-1, dose-response (in words) (TEM-1): reduce the aggregation of the enzyme in a dose-responsive manner

CC1(C)S[C@@H]2[C@H](NC(=O)Cc3ccccc3)C(=O)N2[C@H]1C(=O)O [penicillin G, Benzylpenicillin sodium]
MIC (E. coli strain UZ_TEM104 [2]; Escherichia coli, read-out: MIC penicillin): 1.6 mg/mL
shift in pFTAA and PI channels (in words) (E. coli UZ_TEM104): no major change in either channel

O=C(O)C[C@@H]1CC[C@H](NC(=O)Cc2cccs2)B(O)O1 [vaborbactam]
effect on aggregation of TEM-1, dose-response (in words) (TEM-1): reduce the aggregation of the enzyme in a dose-responsive manner

Ac-RAGWFIARRPRAGWFIARR-NH2 [TEM5.0]
MIC peptide (E. coli strain UZ_TEM104 [1]): 0.1 mg/mL
MIC penicillin (E. coli strain UZ_TEM104 [2]; [3]): 1600 mg/mL
MIC penicillin (E. coli strain UZ_TEM104 [2]; [4]): 1.6 mg/mL

Ac-RGIIAALGRRPRGIIAALGRR-NH2 [TEM6.0]
MIC peptide (E. coli strain UZ_TEM104 [1]): >0.1 mg/mL
MIC penicillin (E. coli strain UZ_TEM104 [2]; [3]): 1600 mg/mL
MIC penicillin (E. coli strain UZ_TEM104 [2]; [4]): 1.6 mg/mL

Ac-RIVVIYTTRRPRIVVIYTTRR-NH2 [TEM7.0]
MIC peptide (E. coli strain UZ_TEM104 [1]): >0.1 mg/mL
MIC penicillin (E. coli strain UZ_TEM104 [2]; [3]): 1600 mg/mL
MIC penicillin (E. coli strain UZ_TEM104 [2]; [4]): 1.6 mg/mL

Ac-RLAAALMLRRPRAQILNWIRR-NH2 [NDM1-2]
FICi values (E. coli TEM104; TEM104, Replicate1): 0.75
FICi values (E. coli TEM104; TEM104, Replicate2): 1
FICi values (E. coli TEM104; TEM104, Replicate3): 0.5
FICi values (E. coli TEM104; TEM104, Replicate4): 1
FICi values (E. coli TEM104; TEM104, Replicate5): 0.72
FICi values (E. coli NDM-5a; Replicate1): 0.375
FICi values (E. coli NDM-5a; Replicate2): 0.36
FICi values (E. coli NDM-5a; Replicate3): 0.25
FICi values (E. coli NDM-5a; Replicate4): 0.159
FICi values (E. coli NDM-5a; Replicate5): 0.25
synergy with penicillin (in words) (E. coli NDM-5a): show synergy
synergy with penicillin (in words) (E. coli NDM-5b): show synergy

Ac-RLLLTTIGRRPRLLLTTIGRR-NH2 [TEM2.0]
MIC peptide (E. coli strain UZ_TEM104 [1]): >0.1 mg/mL
MIC penicillin (E. coli strain UZ_TEM104 [2]; [3]): 800 mg/mL
MIC penicillin (E. coli strain UZ_TEM104 [2]; [4]): 0.8 mg/mL

Ac-RLLTLASRRPRLLTLASRR-NH2 [TEM4.0]
MIC peptide (E. coli strain UZ_TEM104 [1]): 0.1 mg/mL
MIC penicillin (E. coli strain UZ_TEM104 [2]; [3]): 1600 mg/mL
MIC penicillin (E. coli strain UZ_TEM104 [2]; [4]): 1.6 mg/mL

Ac-RLTAFLHNRRPRLTAFLHNRR-NH2 [TEM3.0]
MIC peptide (E. coli strain UZ_TEM104 [1]): >0.1 mg/mL

Ac-RPTPFLHNRRPRPTPFLRQRR-NH2 [Pro3]
FICi values (E. coli; Replicate1): 2
FICi values (E. coli; Replicate2): 2
FICi values (E. coli; Replicate3): 2
FICi values (E. coli; Replicate4): 2

Ac-RSVIIWSLGRRPRSVIIWSLGRR-NH2 [BGAL]
MIC peptide (E. coli strain UZ_TEM104 [1]): > 0.1 mg/mL
FICi values (E. coli TEM104; TEM104, Replicate1): 1
FICi values (E. coli TEM104; TEM104, Replicate2): 1
FICi values (E. coli TEM104; TEM104, Replicate3): 1
FICi values (E. coli TEM104; TEM104, Replicate4): 1
FICi values (E. coli TEM104; TEM104, Replicate5): 1.5
synergy with penicillin G (in words) (E. coli SHV11): no synergy with penicillin G
FICi values (E. coli NDM-5a; Replicate1): 2
FICi values (E. coli NDM-5a; Replicate2): 2
FICi values (E. coli NDM-5a; Replicate3): 2
FICi values (E. coli NDM-5a; Replicate4): 1.5
FICi values (E. coli NDM-5a; Replicate5): 2
synergy with penicillin (in words) (E. coli NDM-5a): neither showed synergy on any of the strains used
FICi values (E. coli NDM-5b; Replicate1): 2
FICi values (E. coli NDM-5b; Replicate2): 1
FICi values (E. coli NDM-5b; Replicate3): 2
FICi values (E. coli NDM-5b; Replicate4): 2
FICi values (E. coli NDM-5b; Replicate5): 1.5
synergy with penicillin (in words) (E. coli NDM-5b): neither showed synergy on any of the strains used

Ac-RTAQILNWRRPRTAQILNWRR-NH2 [NDM1-1]
FICi values (E. coli TEM104; TEM104, Replicate1): 0.5
FICi values (E. coli TEM104; TEM104, Replicate2): 0.78
FICi values (E. coli TEM104; TEM104, Replicate3): 0.72
FICi values (E. coli TEM104; TEM104, Replicate5): 0.75
FICi values (E. coli NDM-5a; Replicate1): 0.37
FICi values (E. coli NDM-5a; Replicate2): 0.38
FICi values (E. coli NDM-5a; Replicate3): 0.21
FICi values (E. coli NDM-5a; Replicate4): 0.195
FICi values (E. coli NDM-5a; Replicate5): 0.25
synergy with penicillin (in words) (E. coli NDM-5a): show synergy
synergy with penicillin (in words) (E. coli NDM-5b): show synergy
